Results on nine molecules are retold here after PubChem BioAssay (NCI).

Test systems include UO-31 renal; U251 CNS; MDA-MB-231 breast; MOLT-4 leukemia; K-562 leukemia; RPMI-8226 leukemia; A498 renal; SF-268 CNS; NCI-H23 lung; T-47D breast; EKVX NSCLC; SN12C renal; NCI-H460 lung; UACC-62 melanoma; HCT-116 colon; SF-295 CNS; SR leukemia.
What all share (assay): inhibition of tumour cell growth, NCI panel, 48 h

The structures appear in SMILES notation.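 Cells were grown in 96-well plates and exposed to each compound for 48 hours at five concentrations; endpoints were interpolated linearly between bracketing concentrations, or set to the highest concentration if not reached. At the TGI there is no net growth.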

On to `C=CCCCC1CCCNC1=O` (configuration not stated), for which the TGI with UO-31 renal, in the experiment on U251 CNS, with MDA-MB-231 breast, in the experiment with MOLT-4 leukemia, with K-562 leukemia and in the experiment on RPMI-8226 leukemia was above 100 µM throughout. Besides, the TGI in the experiment on A498 renal, in the experiment on SF-268 CNS, with NCI-H23 lung, in the experiment on T-47D breast, in the experiment on EKVX NSCLC and in the experiment with SN12C renal was above 100 µM in each case. Moreover, the TGI with NCI-H460 lung, with UACC-62 melanoma, in the experiment on HCT-116 colon and in the experiment on SF-295 CNS was above 100 µM throughout.
As for `O=[N+]([O-])C(Cl)C(Cl)C(Cl)=C(Cl)Cl` (configuration not stated), the TGI in the experiment with UO-31 renal is above 31.6 µM; in the experiment with U251 CNS, above 100 µM; in the experiment with MDA-MB-231 breast, 34.6 µM; in the experiment on MOLT-4 leukemia, 47.8 µM; in the experiment with K-562 leukemia it was 85.2 µM; with A498 renal it was above 100 µM. Besides, the TGI is above 70.5 µM in the experiment on SF-268 CNS; 60.4 µM in the experiment with NCI-H23 lung; 47.9 µM in the experiment with T-47D breast; above 100 µM in the experiment with EKVX NSCLC; above 57.7 µM in the experiment with SN12C renal; above 100 µM with NCI-H460 lung. For the same molecule, the TGI in the experiment on UACC-62 melanoma was 32.9 µM; in the experiment on HCT-116 colon, 38.3 µM; in the experiment with SF-295 CNS, above 100 µM.
Turning to `COc1cc(/C=C2\C[C@H]3[C@@H]4CC=C5C[C@@H](O)CC[C@]5(C)[C@H]4CC[C@]3(C)[C@H]2O)cc(OC)c1OC`, the TGI is 36.8 µM in the experiment with UO-31 renal; 40.8 µM with U251 CNS; 41.7 µM with MDA-MB-231 breast; 91.4 µM in the experiment with MOLT-4 leukemia; above 100 µM in the experiment with K-562 leukemia; above 100 µM with RPMI-8226 leukemia. The TGI in the experiment on A498 renal is 80.6 µM; with SF-268 CNS, above 100 µM; in the experiment with NCI-H23 lung it was 58.2 µM; in the experiment on T-47D breast, 72.6 µM; with EKVX NSCLC, above 100 µM; in the experiment on SN12C renal, above 100 µM. For the same molecule, the TGI was above 100 µM in the experiment on NCI-H460 lung, 39.3 µM with UACC-62 melanoma, 24.4 µM with HCT-116 colon and 22.4 µM with SF-295 CNS.
Turning to `CC(=O)OC1CCN(C(=O)c2ccccc2)CC1CC1(c2cc3ccccc3[nH]2)OCCO1` (configuration not stated), the TGI in the experiment with UO-31 renal was above 100 µM; in the experiment with U251 CNS, above 100 µM; with MDA-MB-231 breast, above 100 µM; with MOLT-4 leukemia, 75 µM; with K-562 leukemia, above 100 µM; in the experiment on RPMI-8226 leukemia, 70.4 µM. Also, the TGI is 96.2 µM in the experiment with A498 renal; above 100 µM in the experiment with NCI-H23 lung; above 100 µM with T-47D breast; above 100 µM in the experiment on EKVX NSCLC; above 100 µM in the experiment with SN12C renal; above 100 µM in the experiment on UACC-62 melanoma. Besides, the TGI in the experiment on HCT-116 colon and in the experiment on SF-295 CNS was above 100 µM throughout.
As to `N#Cc1c2ccc([N+](=O)[O-])cc2c(=O)n2c1sc1ccc(C(F)(F)F)cc12`, the TGI in the experiment on UO-31 renal, with U251 CNS, in the experiment on MDA-MB-231 breast, in the experiment with MOLT-4 leukemia, in the experiment with K-562 leukemia and with RPMI-8226 leukemia was above 100 µM each time. In addition, the TGI in the experiment with A498 renal, with SF-268 CNS, in the experiment with NCI-H23 lung, with T-47D breast, in the experiment on EKVX NSCLC and with SN12C renal was above 100 µM in each case. Moreover, the TGI in the experiment on NCI-H460 lung, in the experiment with HCT-116 colon and in the experiment on SF-295 CNS was above 100 µM in each case.
With `C=C1C(=O)O[C@@H]2[C@H]1C[C@@H](O)[C@H](C)[C@@](O)(C(=O)/C=C/C)[C@H]2OC(=O)C(C)CC` (some centres not stated), the TGI with UO-31 renal is 4.06 µM; in the experiment on U251 CNS, 26.6 µM; in the experiment on MDA-MB-231 breast, 19.6 µM; with MOLT-4 leukemia, above 36.9 µM; in the experiment on K-562 leukemia, 23.6 µM; in the experiment with RPMI-8226 leukemia it was 18.2 µM. Further, the TGI in the experiment on A498 renal is 37.7 µM; in the experiment on SF-268 CNS, above 54 µM; in the experiment on NCI-H23 lung, 18.2 µM; in the experiment with T-47D breast, 71.8 µM; in the experiment on EKVX NSCLC, 27.3 µM; in the experiment on SN12C renal, 7.51 µM. The TGI in the experiment with NCI-H460 lung was above 100 µM; with UACC-62 melanoma it was 32.9 µM; in the experiment with HCT-116 colon it was 3.58 µM; in the experiment on SF-295 CNS, above 100 µM.
For `CC(=O)C1C(=O)C(=O)N(c2cccc(C)c2C)C1=O` (configuration not stated), the TGI in the experiment with UO-31 renal, with MDA-MB-231 breast, in the experiment on MOLT-4 leukemia, in the experiment on NCI-H23 lung, in the experiment on T-47D breast and with EKVX NSCLC was above 100 µM throughout. In addition, the TGI in the experiment on SN12C renal, in the experiment on UACC-62 melanoma, in the experiment on HCT-116 colon and with SF-295 CNS was above 100 µM throughout.
On to `C/C=C/c1c(O)c(=O)c2c(OC)cc(OC)c3c4c(OC)cc(OC)c5c(=O)c(O)c(/C=C/C)c(c1c23)c54`, for which the TGI is 6.33 µM in the experiment with UO-31 renal; 47.1 µM with U251 CNS; 34.9 µM in the experiment with MDA-MB-231 breast; above 100 µM in the experiment with MOLT-4 leukemia; above 100 µM in the experiment with K-562 leukemia; above 100 µM in the experiment on RPMI-8226 leukemia. The TGI with A498 renal was above 100 µM; in the experiment with SR leukemia, above 100 µM; in the experiment on SF-268 CNS it was 24.6 µM; with NCI-H23 lung it was 23.9 µM; in the experiment with EKVX NSCLC, 40.5 µM; with SN12C renal, 41.8 µM. Besides, the TGI in the experiment with NCI-H460 lung is 44.3 µM; with UACC-62 melanoma it was 30.6 µM; in the experiment with HCT-116 colon it was 28 µM; with SF-295 CNS it was above 100 µM.
In the case of `CCOC(=O)c1c(N)nn2c1cc1cccccc12`, the TGI is 69.6 µM in the experiment with U251 CNS; above 100 µM in the experiment on MDA-MB-231 breast; above 100 µM with MOLT-4 leukemia; 45.7 µM in the experiment with RPMI-8226 leukemia; 84.9 µM with A498 renal; 68.2 µM in the experiment on SF-268 CNS. Besides, the TGI is 69 µM with NCI-H23 lung; 64.4 µM in the experiment with T-47D breast; above 100 µM in the experiment on EKVX NSCLC; above 100 µM in the experiment on SN12C renal; 58.6 µM in the experiment on NCI-H460 lung; 50.8 µM in the experiment with UACC-62 melanoma. Further, the TGI is above 100 µM with HCT-116 colon and 86.7 µM in the experiment with SF-295 CNS.
